We go through 1 molecule from PMC11677424, “Early-Stage IM Treatment with the Host-Derived Immunostimulant CPDI-02 Increases Curative Protection of Healthy Outbred Mice Against Subcutaneous Infection with Community-Acquired Methicillin-Resistant Staphylococcus aureus USA300” (Pharmaceutics, 2024).

For one series, the system named is CA-MRSA USA300. The settings on record: cited from earlier work. The source says: Consistent with protection, SQ treatment with CPDI-02 increased local levels of IL-1β, IL-6, and CXCL1 and NP recruitment to the abscess. In contrast, SQ treatment of C5aR1 knockout mice with CDPI-02 had no effect against SQ infection with CA-MRSA up to ...
For series [1], the system named is primary human neutrophils (NPs). The conditions noted are these: cited from earlier work. The text has this: (§1) Complement Peptide-Derived Immunostimulant-02 (CPDI-02) (formerly EP67) is a novel, second-generation host-derived decapeptide agonist of […] (C5) Receptor 1 (C5aR1/C5a1R/CD88), which is based on the C-terminal pharmacophore of human Complement Peptide C5a (hC5a).

Series [2] relates to primary human mononuclear phagocytes (MPs). The conditions noted are these: cited from earlier work.
Description: as §1

Series [3] relates to neutrophils (Ly6G/Ly6C+) and mononuclear phagocytes (F4/80+) in subcutaneous abscesses. The series is described as follows: Proportions of neutrophils and mononuclear phagocytes in subcutaneous abscesses (quantitative IHC). In kind it is in vivo, female outbred CD-1 mice. The conditions noted are these: single IM 50 mg/kg at 6 h post-challenge; 18 h post-treatment; n = 3 mice.

Series [4] concerns healthy male and female outbred CD-1 mice. Put plainly: IM dose escalation in healthy CD-1 mice. In kind it is in vivo. The protocol:
Twenty-four CD-1 mice, approximately 4 weeks old, were randomized by weight and sex into four cohorts and then intramuscularly administered either vehicle alone (filter-sterilized 0.2 μm endotoxin-free PBS) or vehicle containing CPDI-02 twice a week over 4 weeks (eight doses total). CPDI-02 doses began at 15 mg/kg and subsequent doses were increased by a conventional modified Fibonacci scheme (increase over previous dose: 100%, 67%, 50%, 40%, 30%, 33%, 33%) to a final dose of 225 mg/kg. Mice were weighed prior to the study and prior to each dose administration. On each dose administration date, mice were assigned a Pain and Distress Assessment Score (Table S1). Four days after the last treatment, mice were euthanized, whole blood was collected for complete blood count (CBC) with differential (VetScan® HM5 Hematology Analyzer), and the thymus, heart, lungs, brain, liver, spleen, kidneys, femur bone marrow, popliteal lymph nodes, Peyer’s patches, and injection site muscle (left caudal thigh muscle) were collected. Collected tissues were fixed in 10% formalin for 48 h and then embedded in paraffin. Before embedment in paraffin, femur bone marrow samples underwent decalcification by shaking in 10% formic acid for 8 h. Paraffin samples were cut into sections and underwent a Hematoxylin and Eosin (H&E) stain, then analyzed for signs of inflammation and other tissue abnormalities utilizing a Nikon Eclipse E600 at 40× magnification, and imaged using a Lumenera Infinity 2 Microscope Camera.

Series [5] has as its system pro-inflammatory cytokines/chemokines in subcutaneous abscesses. Put plainly: Pro-inflammatory cytokines and chemokines in subcutaneous abscesses (multiplex ELISA). The settings on record: single IM 50 mg/kg at 6 h post-challenge, n = 5. The series is classed as in vivo, female outbred CD-1 mice. The method, then: At 3 h and 18 h post-treatment (Section 2.4: single IM treatment), mice were euthanized (n = 5 per cohort per time point), then abscess and skin biopsies were collected (Section 2.5), suspended in PBS [2 mL], and homogenized in C tubes (Miltenyi Biotec 130-093-237) using a gentleMACS Dissociator (Miltenyi Biotec 130-093-235, program B). Tissue homogenates were stored at −20 °C until analysis. Homogenized abscess tissues were then analyzed using a V-PLEX Pro-inflammatory Panel 1 Mouse Kit (Meso Scale Diagnostics K15048D-1) on a MESO QuickPlex SQ 120MM (MESO, Rockville, MD, USA) to measure the inflammatory markers of the abscesses.

In another series the test system is CA-MRSA USA300 LAC. Put plainly: CA-MRSA burden of subcutaneous abscesses after single IM treatment. In kind it is in vivo, Staphylococcus aureus. The settings on record: female CD-1 mice, single IM 50 mg/kg at 6 h post-challenge, Day 1 post-challenge. The method, then:
At 24 h post-challenge (Section 2.4: single IM treatment), mice were euthanized (n = 5 per cohort) and rear flanks were disinfected with 70% EtOH. Abscess and skin biopsies (Tru-Punch Sterile Disposable Biopsy Punch Razors, 8 mm^2, Sklar instruments 961130) were suspended in TSB [2 mL] and homogenized in C tubes (Miltenyi Biotec 130-093-237, Bergisch Gladbach, DE) using a gentleMACS Dissociator (Miltenyi Biotec 130-093-235, program B). Homogenized abscess tissues were serially diluted in PBS and plated on TSA plates and incubated at 37 °C for 24 h, and bacterial colonies were counted. Bacterial colony counts per abscess were normalized to starting tissue weights and compared using a Mann–Whitney test (nonparametric t-test). Sections of paraffin-embedded tissues collected above were also Gram-stained and analyzed on a Nikon Eclipse E600 (Minato City, Japan) at 200× magnification and imaged using a Lumenera Infinity 2 Microscope Camera (Ottawa, ON, Canada).

Regarding `CSCC[C@H](NC(=O)[C@H](CC(=O)O)NC(=O)[C@H](CCCCN)NC(=O)[C@H](Cc1ccccc1)NC(=O)[C@H](CO)NC(=O)[C@@H](N)Cc1ccc(O)cc1)C(=O)N1CCC[C@H]1C(=O)N(C)[C@@H](CC(C)C)C(=O)N[C@H](C)C(=O)N[C@@H](CCCNC(=N)N)C(=O)O` [CPDI-02], the “effect against SQ infection with CA-MRSA vs inactive scCPDI-02” value in the series with CA-MRSA USA300 (C5aR1 knockout mice, SQ treatment, up to 48 h post-challenge) is on record as “no effect”. Moreover, in the series on CA-MRSA USA300 (outbred mice, prophylactic SQ treatment), the “local levels of IL-1β, IL-6 and CXCL1 and NP recruitment to the abscess” value is listed as “increased”. In addition, the “maximum abscess surface area, CA-MRSA load per gram of tissue and time to abscess resolution vs inactive scCPDI-02” value in the series with CA-MRSA USA300 (outbred mice, repeat SQ treatment before and after SQ challenge, three injections total, 12.5 mg/kg) is “significantly decreased”. The EC50 in series [1] is 160 µM. The “potency for activating MPs over NPs” value in series [2] (primary human MPs vs primary human NPs) is reported as 10^3 fold. The EC50 in series [2] (primary human MPs) was 0.167 µM. Besides, in series [3], the “increase of ratio of MPs (F4/80+) to total cells (DAPI+) vs vehicle alone” value turned out to be 4 fold, the “increase of ratio of mononuclear phagocytes to neutrophils (Ly6G/Ly6C+) vs vehicle alone” value stood at 7 fold and the “ratio of NPs (Ly6G/Ly6C+) to total cells (DAPI+) in subcutaneous abscesses vs vehicle alone” value is on record as “similar”. Further, in series [4] (male and female CD-1 mice, IM twice a week, 15 up to 225 mg/kg over 28 days, 8 doses, n = 6), the “weight gain or survival” value was “did not affect”. The “mice with signs of inflammation around the injection site” value in series [4] (male mice, four days after final dose, H&E, vehicle none) was 50%. Also, in series [4] (mouse, in vivo), the “mice with signs of inflammation around the injection site” value came to 83% and the “signs of inflammation in thymus, heart, lungs, brain, liver, spleen, kidneys, femur bone marrow, popliteal lymph nodes, Peyer's patches” value is on record as “did not increase”. Moreover, in series [4] (mouse, in vivo, 225 mg/kg), the “platecrit vs vehicle alone” value was “decreased” and the “platelets vs vehicle alone” value is listed as “decreased”. Further, in series [5] (3 h and 18 h post-treatment), the “levels of IFN-γ, IL-2, IL-4, IL-5, IL-6, IL-10, IL-12p70, CXCL-1 [KC/GRO], TNF-α in subcutaneous abscesses” value is given as “no effect”. Also, in series [5] (3 h post-treatment), the “levels of IL-1β in subcutaneous abscesses vs vehicle alone” value is given as “decreased”. In addition, the “detectable CA-MRSA in subcutaneous abscesses (Gram staining) vs vehicle” value in the series on CA-MRSA USA300 LAC (histochemistry) is recorded as “qualitatively decreased”. For the same molecule, in the series with CA-MRSA USA300 LAC (mean ± SD, vehicle 3 × 10^6 ± 2 × 10^6, SD), the “CA-MRSA CFU/g of abscess tissue” value was 1.8 × 10^6 ± 0.8 × 10^6 CFU/g of abscess tissue.

In general, EC50 refers to the concentration giving half of the maximal effect.
